Drawing on patent US20230114728A1 (Venatorx Pharmaceuticals, Inc., priority 2019, published 2023), this text covers MIC for five compounds.

≈ marks a conversion by molar mass, not a printed value.

Common to all, as to assay: Broth microdilution MIC in CAMHB
Assay type in all cases: cell-based
(In general: Broth dilution looks for growth in wells or tubes with falling amounts of substance.)

The test system of assay [1] is K. pneumoniae UMM producing SHV-5 and KPC-2. The conditions noted are these: Klebsiella pneumoniae, read-out: Minimum Inhibitory Concentration, K. pneumoniae UMM. In outline: (§1)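 Hyper-permeable or efflux-deficient strains serve to probe outer-membrane penetration. Growth inhibition is scored visually after 16-20 h at 37° C in CAMHB, starting from 2-8×10^5 CFU/mL.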

In another assay the test system is E. coli AG100. To be noted: Escherichia coli; E. coli AG100 (wild-type parent); MHB; read-out: Minimum Inhibitory Concentration, E. coli AG100. The method, boiled down:
as §1

In a further assay the test system is E. coli D22. To be noted: Escherichia coli; E. coli D22 (hyper-permeable); MHB; read-out: Minimum Inhibitory Concentration, E. coli D22. In outline: as §1
For the next assay, the system named is E. coli 901C. To be noted: Escherichia coli; E. coli 901C (hyper-permeable); MHB; read-out: Minimum Inhibitory Concentration, E. coli 901C. The method, boiled down:
as §1

A further assay concerns E. coli AG100A. The conditions noted are these: Escherichia coli, read-out: Minimum Inhibitory Concentration, E. coli AG100A. In outline: as §1
A further assay concerns P. aeruginosa ATCC 35151. The conditions noted are these: Pseudomonas aeruginosa, ATCC35151; MHB; hyper-permeable strain; read-out: Minimum Inhibitory Concentration, P. aeruginosa ATCC 35151. The method, boiled down: as §1
Assay [2] relates to K. pneumoniae SI-117 producing VIM-1. The conditions noted are these: Klebsiella pneumoniae, read-out: Minimum Inhibitory Concentration, K. pneumoniae SI-117. The method, boiled down:
as §1

The subject of a further assay is E. coli ATCC 25922. To be noted: Escherichia coli, ATCC25922; E. coli ATCC 25922; MHB; read-out: Minimum Inhibitory Concentration, E. coli 25922. The method, boiled down:
as §1

Assay [3] deals with P. aeruginosa (ΔmexAB-oprM). To be noted: Pseudomonas aeruginosa, read-out: Minimum Inhibitory Concentration, P. aeruginosa ΔmexAB-OprM. The method, boiled down:
as §1

The test system of another assay is A. baumannii ATCC 19606. To be noted: Acinetobacter baumannii, ATCC19606; MHB; read-out: Minimum Inhibitory Concentration, A. baumannii ATCC 19606. The method, boiled down:
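MIC, read by eye, is the lowest compound concentration giving no bacterial growth after 16-20 h at 37° C. Test compounds are serially diluted 2-fold in CAMHB and seeded with 2-8×10^5 CFU/mL of bacteria taken from a 3-5 h shaking culture, following CLSI methods.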

In a further assay the test system is P. aeruginosa ATCC 27853. To be noted: Pseudomonas aeruginosa, ATCC27853; MHB; read-out: Minimum Inhibitory Concentration, P. aeruginosa ATCC 27853. The method, boiled down:
as §1

Assay [4] deals with K. pneumoniae 848844 producing SHV-11 and KPC-2. To be noted: Klebsiella pneumoniae, read-out: Minimum Inhibitory Concentration, K. pneumoniae 848844. The method, boiled down: as §1

Turning to `CCN1CCN(C(=O)NC(C(=O)N[C@H]2Cc3cccc(C(=O)O)c3OB2O)c2c(F)c(F)c(O)c(F)c2F)C(=O)C1=O` (stereo partly drawn) [Example 175, (3R)-3-(2-(4-ethyl-2,3-dioxopiperazine-1-carboxamido)-2-(2,3,5,6-tetrafluoro-4-hydroxyphenyl)acetamido)-2-hydroxy-3,4-dihydro-2H-benzo[e][1,2]oxaborinine-8-carboxylic acid], the MIC was 32 to 64 µg/mL (≈ 53.7 to 107 µM) in assay [1]; 8 to 16 µg/mL (≈ 13.4 to 26.8 µM) with E. coli AG100; 2 to 4 µg/mL (≈ 3.35 to 6.71 µM) in the assay with E. coli D22; less than 0.25 µg/mL in the assay with E. coli 901C; 2 to 4 µg/mL (≈ 3.35 to 6.71 µM) in the assay with E. coli AG100A; 0.5 to 1 µg/mL (≈ 0.839 to 1.68 µM) in the assay with P. aeruginosa ATCC 35151. Moreover, the MIC in assay [2] is more than 128 µg/mL; with E. coli ATCC 25922 it was 32 to 64 µg/mL (≈ 53.7 to 107 µM); in assay [3] it was 8 to 16 µg/mL (≈ 13.4 to 26.8 µM); with A. baumannii ATCC 19606, 32 to 64 µg/mL (≈ 53.7 to 107 µM); in the assay on P. aeruginosa ATCC 27853, more than 128 µg/mL; in assay [4] it was more than 128 µg/mL.
Turning to `CCN1CCN(C(=O)NC(C(=O)N[C@H]2Cc3cccc(C(=O)O)c3OB2O)c2c(F)cc(NS(N)(=O)=O)cc2F)C(=O)C1=O` (stereo partly drawn) [Example 176, (3R)-3-(2-(2,6-difluoro-4-(sulfamoylamino)phenyl)-2-(4-ethyl-2,3-dioxopiperazine-1-carboxamido)acetamido)-2-hydroxy-3,4-dihydro-2H-benzo[e][1,2]oxaborinine-8-carboxylic acid], the MIC in assay [1] was 32 to 64 µg/mL (≈ 50.1 to 100 µM); in the assay on E. coli AG100, 32 to 64 µg/mL (≈ 50.1 to 100 µM); with E. coli D22, 2 to 4 µg/mL (≈ 3.13 to 6.27 µM); with E. coli 901C it was less than 0.25 µg/mL; with E. coli AG100A, 2 to 4 µg/mL (≈ 3.13 to 6.27 µM); with P. aeruginosa ATCC 35151, 2 to 4 µg/mL (≈ 3.13 to 6.27 µM). Further, the MIC in [2] is more than 128 µg/mL; in the assay with E. coli ATCC 25922 it was 32 to 64 µg/mL (≈ 50.1 to 100 µM); in assay [3], 32 to 64 µg/mL (≈ 50.1 to 100 µM); in the assay on A. baumannii ATCC 19606 it was more than 128 µg/mL; in the assay on P. aeruginosa ATCC 27853, more than 128 µg/mL; in [4] it was more than 128 µg/mL.
With `NCCN1CCN(C(=O)NC(C(=O)N[C@H]2Cc3cccc(C(=O)O)c3OB2O)c2c(F)cc(NS(N)(=O)=O)cc2F)C(=O)C1=O` (stereo partly drawn) [Example 177, (3R)-3-(2-(4-(2-aminoethyl)-2,3-dioxopiperazine-1-carboxamido)-2-(2,6-difluoro-4-(sulfamoylamino)phenyl)acetamido)-2-hydroxy-3,4-dihydro-2H-benzo[e][1,2]oxaborinine-8-carboxylic acid], the MIC in assay [1] is more than 128 µg/mL; in the assay with E. coli AG100, more than 128 µg/mL; in the assay with E. coli D22, 32 to 64 µg/mL (≈ 49 to 98 µM); in the assay on E. coli 901C, 2 to 4 µg/mL (≈ 3.06 to 6.12 µM); in the assay with E. coli AG100A, 8 to 16 µg/mL (≈ 12.2 to 24.5 µM); in the assay with P. aeruginosa ATCC 35151, 2 to 4 µg/mL (≈ 3.06 to 6.12 µM). The MIC in assay [2] is more than 128 µg/mL; in the assay with E. coli ATCC 25922, more than 128 µg/mL; in assay [3], 32 to 64 µg/mL (≈ 49 to 98 µM); with A. baumannii ATCC 19606, more than 128 µg/mL; in the assay on P. aeruginosa ATCC 27853, more than 128 µg/mL; in assay [4], more than 128 µg/mL.
Regarding `NCCCN1CCN(C(=O)NC(C(=O)N[C@H]2Cc3ccc(F)c(C(=O)O)c3OB2O)c2c(F)cc(O)cc2F)C(=O)C1=O` (stereo partly drawn) [Example 178, (3R)-3-(2-(4-(3-aminopropyl)-2,3-dioxopiperazine-1-carboxamido)-2-(2,6-difluoro-4-hydroxyphenyl)acetamido)-7-fluoro-2-hydroxy-3,4-dihydro-2H-benzo[e][1,2]oxaborinine-8-carboxylic acid], the MIC is 8 to 16 µg/mL (≈ 13.2 to 26.3 µM) in assay [1]; 8 to 16 µg/mL (≈ 13.2 to 26.3 µM) in the assay on E. coli AG100; 2 to 4 µg/mL (≈ 3.29 to 6.59 µM) in the assay on E. coli D22; 2 to 4 µg/mL (≈ 3.29 to 6.59 µM) with E. coli 901C; 8 to 16 µg/mL (≈ 13.2 to 26.3 µM) with E. coli AG100A; 0.5 to 1 µg/mL (≈ 0.823 to 1.65 µM) in the assay with P. aeruginosa ATCC 35151. Besides, the MIC in assay [2] was 32 to 64 µg/mL (≈ 52.7 to 105 µM); with E. coli ATCC 25922, 32 to 64 µg/mL (≈ 52.7 to 105 µM); in assay [3], 8 to 16 µg/mL (≈ 13.2 to 26.3 µM); with A. baumannii ATCC 19606, more than 128 µg/mL; in the assay on P. aeruginosa ATCC 27853, more than 128 µg/mL; in [4] it was 32 to 64 µg/mL (≈ 52.7 to 105 µM).
For `CCN1CCN(C(=O)NC(C(=O)N[C@H]2Cc3cccc(C(=O)O)c3OB2O)c2c(F)cc(N)cc2F)C(=O)C1=O` (stereo partly drawn) [Example 181, (3R)-3-(2-(4-amino-2,6-difluorophenyl)-2-(4-ethyl-2,3-dioxopiperazine-1-carboxamido)acetamido)-2-hydroxy-3,4-dihydro-2H-benzo[e][1,2]oxaborinine-8-carboxylic acid], the MIC was 32 to 64 µg/mL (≈ 57.2 to 114 µM) in assay [1]; 32 to 64 µg/mL (≈ 57.2 to 114 µM) in the assay on E. coli AG100; 2 to 4 µg/mL (≈ 3.58 to 7.15 µM) with E. coli D22; less than 0.25 µg/mL with E. coli 901C; 2 to 4 µg/mL (≈ 3.58 to 7.15 µM) in the assay with E. coli AG100A; 0.5 to 1 µg/mL (≈ 0.894 to 1.79 µM) in the assay with P. aeruginosa ATCC 35151. Besides, the MIC was 32 to 64 µg/mL (≈ 57.2 to 114 µM) in assay [2]; 32 to 64 µg/mL (≈ 57.2 to 114 µM) in the assay on E. coli ATCC 25922; 8 to 16 µg/mL (≈ 14.3 to 28.6 µM) in assay [3]; more than 128 µg/mL in the assay with A. baumannii ATCC 19606; more than 128 µg/mL with P. aeruginosa ATCC 27853; more than 128 µg/mL in assay [4].
